Article PMC4813125, “Identification of Human UDP-Glucuronosyltransferase 1A4 as the Major Isozyme Responsible for the Glucuronidation of 20(S)-Protopanaxadiol in Human Liver Microsomes” (International Journal of Molecular Sciences, 2016)

Tests used:
[1] = system: PPD glucuronidation in pooled HLMs; test: Chemical inhibition of PPD glucuronidation in pooled HLMs; assay type: in vitro ADME, human; settings: PPD 50 μM; for inhibition of PPD glucuronidation (in words): inhibitor 5, 50, and 200 μM
Procedure: Fluconazole, androsterone, estradiol, and hecogenin [25, 34] were used to inhibit their potential inhibitory effects on PPD glucuronidation in pooled HLMs. A set of concentrations (5, 50, and 200 μM) was used for all four inhibitors. The concentration of PPD was set at 50 μM. The reaction time and protein concentration were set at 60 min and 0.5 mg/mL, respectively. All other incubation conditions were the same as those for Glucuronidation of PPD in pooled HLMs described above. The concentration of organic solvent was 1% of the total incubation volume. An experimental group without inhibitors but with solvents was used as the control, in which the activities of PPD glucuronidation were designated as 100%. The activities of PPD glucuronidation in the inhibited samples were compared with the control to evaluate the remaining enzyme activity. For determination of IC50 (representing the concentration that inhibits 50% of the control activity) of hecogenin, experiments with a set of concentrations of hecogenin (1–400 μM) in pooled HLMs were conducted.

human recombinant UGT1A3 = target: T1, human recombinant UGT1A3 (Homo sapiens, UniProt P35503); test: PPD glucuronidation with recombinant human UGT1A3; assay type: in vitro ADME; settings: UGT1A3 0.25 mg protein/mL
T1 construct: purchased BD Gentest
T1 sequence (P35503 29-534): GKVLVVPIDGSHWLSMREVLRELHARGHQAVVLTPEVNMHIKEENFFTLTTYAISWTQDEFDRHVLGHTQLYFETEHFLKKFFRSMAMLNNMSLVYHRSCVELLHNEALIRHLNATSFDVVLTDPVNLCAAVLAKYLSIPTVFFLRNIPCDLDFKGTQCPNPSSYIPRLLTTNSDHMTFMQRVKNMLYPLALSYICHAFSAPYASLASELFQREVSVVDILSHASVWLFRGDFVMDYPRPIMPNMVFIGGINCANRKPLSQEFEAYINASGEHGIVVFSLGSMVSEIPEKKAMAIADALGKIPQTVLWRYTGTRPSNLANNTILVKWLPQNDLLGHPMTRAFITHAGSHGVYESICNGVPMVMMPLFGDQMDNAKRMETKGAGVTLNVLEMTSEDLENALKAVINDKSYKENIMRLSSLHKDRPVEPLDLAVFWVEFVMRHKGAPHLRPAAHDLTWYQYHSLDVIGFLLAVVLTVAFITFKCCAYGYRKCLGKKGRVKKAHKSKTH
Procedure: (§1) PPD glucuronidation was measured in reaction mixtures containing human recombinant UGT1A1, 1A3, 1A4, 1A6, 1A7, 1A8, 1A9, 1A10, 2B4, 2B7, 2B15, and 2B17. Three substrate concentrations (10, 50, and 200 μM) were used in this study. The incubation conditions were the same as those for Glucuronidation of PPD in pooled HLMs described above except for the protein concentration (0.25 mg/mL).

[2] = system: human recombinant UGT1A1, 1A6, 1A7, 1A8, 1A9, 1A10, 2B4, 2B7, 2B15, and 2B17; test: PPD glucuronidation with other recombinant human UGT isozymes; assay type: in vitro ADME; settings: PPD 10, 50, and 200 μM, 0.25 mg protein/mL
Procedure: as §1

[3] = system: pooled human liver microsomes (HLMs); test: Kinetics of PPD glucuronidation by pooled human liver microsomes; assay type: in vitro ADME; settings: formation of PPDG
Procedure: (§2) In vitro PPD glucuronidation was in an incubation volume of 100 μL. Incubation conditions were initially optimized for the linear product formation with respect to protein concentration (0.2–1 mg/mL), and incubation time (15–120 min). The stock solution of PPD was prepared in dimethyl sulfoxide (DMSO), and the final concentration of DMSO in the incubations was 1% (v/v). Briefly, the incubation mixture contained HLMs or RLMs (0.5 mg of protein/mL), UDPGA (2 mM), MgCl2 (4 mM), alamethicin (25 μg/mg protein), PPD (10–500 μM), and Tris–HCl buffer (50 mM, pH 7.4). The mixture was incubated for 5 min at 37 °C, and then the reaction was started by the addition of UDPGA and incubated in a shaking water bath for 60 min. The reaction was terminated by addition of 200 μL of ice-cold acetonitrile containing GRg1 (internal standard (IS), 0.5 μg/mL) and then centrifuged at 15,000× g for 10 min at 4 °C. The supernatant was evaporated to dryness under nitrogen gas at room temperature, and the residue was reconstituted with 200 µL of 20% acetonitrile. After centrifugation at 15,000× g for 10 min at 4 °C, 5 μL of the supernatants was subjected to analysis. Incubations without PPD and UDPGA were served as blank and negative controls, respectively.
(§3) Quantitative analysis was conducted on an Agilent 1290 infinity system (Agilent Technologies, Santa Clara, CA, USA) coupled with an MS/MS detector (6410 B Triple Quad LC/MS; Agilent Technologies) in negative ion mode. The chromatographic separations were performed on an ACQUITY UPLC HSS T3 column (100 mm × 2.1 mm i. d. (inner diameter), 1.8 μm) thermostated at 45 °C. The mobile phase consisted of A (5 mM ammonium acetate in water) and B (acetonitrile) at a flow rate of 0.4 mL/min. The gradient elution program was set as follow: 0–2 min 20%–50% B, 2–4 min 50%–60% B, 4–5 min 60% B and finally, reconditioning the column with 20% B for 1 min. Optimized ion source parameters were set as follows: gas temperature 325 °C; gas flow 10 L/min; nebulizer 35 psi; capillary voltage 3500 V; fragmentor voltage 265 V for PPDG and 215 V for IS; cell accelerator voltage 0 V; dwell time 200 ms. Data were acquired in multiple reaction monitor (MRM) mode for the following transitions: m/z 635.4 to m/z 375.1 for PPDG and m/z 799.5 to m/z 637.6 for IS, with the collision energy being set at 50 and 26 V, respectively.
(§4) All results were obtained from three replicates in different microsomal incubations, and all the data were expressed as mean ± SD. To estimate the kinetic parameters, data were transformed and Eadie–Hofstee curves were plotted, which help to identify kinetic models. […] In addition, CLmax was calculated according to the Equation (2). […]

[4] = parameters: method as in PMID 23494798; settings: previous studies ref 13; cited from earlier work
human recombinant UGT1A4 [5] = target: T2, human recombinant UGT1A4 (Homo sapiens, UniProt P22310); test: PPD glucuronidation with recombinant human UGT1A4; assay type: in vitro ADME; parameters: purchased BD Gentest; settings: UGT1A4 0.25 mg protein/mL
T2 sequence (P22310 29-534): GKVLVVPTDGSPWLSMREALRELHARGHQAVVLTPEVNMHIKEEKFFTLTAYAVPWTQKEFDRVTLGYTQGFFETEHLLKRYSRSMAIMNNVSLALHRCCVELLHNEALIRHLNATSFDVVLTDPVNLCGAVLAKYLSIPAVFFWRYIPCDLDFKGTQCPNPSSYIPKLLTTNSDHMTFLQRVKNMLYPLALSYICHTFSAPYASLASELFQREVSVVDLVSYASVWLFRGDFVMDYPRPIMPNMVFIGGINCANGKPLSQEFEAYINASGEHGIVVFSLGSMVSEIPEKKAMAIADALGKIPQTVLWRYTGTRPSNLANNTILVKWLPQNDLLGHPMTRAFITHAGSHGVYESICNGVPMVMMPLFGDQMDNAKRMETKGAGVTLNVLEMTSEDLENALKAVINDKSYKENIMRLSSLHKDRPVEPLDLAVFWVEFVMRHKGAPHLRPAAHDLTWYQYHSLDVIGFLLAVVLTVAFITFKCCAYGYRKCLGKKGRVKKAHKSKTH
Procedure: as §1

human recombinant UGT1A4 [6] = target: T2, human recombinant UGT1A4; test: Kinetics of PPD glucuronidation by recombinant UGT1A4; assay type: in vitro ADME; settings: formation of PPDG
Procedure: (§5) A kinetic study for PPD glucuronidation by human recombinant UGT 1A4 was also conducted by incubating PPD with human recombinant UGT 1A4 at protein concentration of 0.25 mg/mL for 1 h. All other incubation conditions were identical to those of glucuronidation of PPD in pooled HLMs.
(§6) All results were obtained from three replicates in different microsomal incubations, and all the data were expressed as mean ± SD. To estimate the kinetic parameters, data were transformed and Eadie–Hofstee curves were plotted, which help to identify kinetic models. Then kinetic parameters were obtained by fitting velocity data to the sigmoidal kinetic (Hill) model (Equation (1)) using Graph Pad Prism 5.0 software (San Diego, CA, USA). In addition, CLmax was calculated according to the Equation (2). (1) V=Vmax × [S]^n/S50n + [S]^n (2) CLmax = Vmax/S50 × n−1/n(n−1)^1/n
(§7) V is reaction velocity, Vmax is the maximum reaction velocity, [S] is the substrate concentration, S50 is the substrate concentration at 0.5 Vmax (analogous to Km in the Michaelis–Menten equation), n is the Hill coefficient (which reflects the degree of sigmoidicity of the velocity versus substrate-concentration relationship), CLmax is the maximum clearance, which provides an estimate of the highest clearance attained.

[7] = system: pooled rat liver microsomes (RLMs); test: Kinetics of PPD glucuronidation by pooled rat liver microsomes; assay type: in vitro ADME; settings: formation of PPDG
Procedure: as §2, §3, §4

[8] = substrate: CC(C)=CCC[C@](C)(O)C1CC[C@]2(C)[C@@H]1[C@H](O)CC1[C@@]3(C)CC[C@H](O)C(C)(C)C3CC[C@]12C; test: Kinetics of PPD glucuronidation by recombinant UGT1A4; assay type: in vitro ADME, human; settings: other: formation of PPDG, recombinant UGT1A4, Hill kinetics, 10–500 μM PPD
Procedure: as §5, §6, §7

[9] = HLMs, Hill kinetics, 10–500 μM PPD
[10] = RLMs, Hill kinetics, 10–500 μM PPD

C[C@]12CC[C@@H](O)C[C@@H]1CC[C@@H]1[C@@H]2CC[C@]2(C)C(=O)CC[C@@H]12 [androsterone]
inhibition of PPD glucuronidation (in words) ([1]; pooled HLMs 0.5 mg/mL): weak inhibition

OC(Cn1cncn1)(Cn1cncn1)c1ccc(F)cc1F [Fluconazole, fluconazole]
inhibition of PPD glucuronidation (in words) ([1]; pooled HLMs 0.5 mg/mL): no inhibition

hecogenin
IC50 ([1]; pooled HLMs, hecogenin 1–400 μM): 21.3 ± 4.31 µM
inhibition of PPD glucuronidation (in words) ([1]; pooled HLMs 0.5 mg/mL): concentration-dependent inhibitory effect
inhibitory effect on PPD glucuronidation compared with the solvent control ([1]; inhibitor at 50 µM, pooled HLMs 0.5 mg/mL): more than 60%

C[C@]12CC[C@@H]3c4ccc(O)cc4CC[C@H]3[C@@H]1CC[C@@H]2O [estradiol]
inhibition of PPD glucuronidation (in words) ([1]; pooled HLMs 0.5 mg/mL): weak inhibition

CC(C)=CCC[C@](C)(O)[C@H]1CC[C@]2(C)[C@@H]1[C@H](O)C[C@@H]1[C@@]3(C)CC[C@H](O)C(C)(C)[C@@H]3CC[C@]12C [PPD, 20(S)-protopanaxadiol]
catalytic activity towards PPD glucuronidation (human recombinant UGT1A3; PPD 10 μM): 0.02 ± 0.004 nmol/min/mg protein
catalytic activity towards PPD glucuronidation (human recombinant UGT1A3; PPD 50 μM): 0.04 ± 0.004 nmol/min/mg protein
catalytic activity towards PPD glucuronidation (human recombinant UGT1A3; PPD 200 μM): 0.04 ± 0.003 nmol/min/mg protein
PPD glucuronidation by other UGT isozymes (in words) [2]: did not participate in this metabolism
Vmax ([3]; HLMs 0.5 mg protein/mL, Hill kinetics, 10–500 μM PPD, mean ± SD): 0.32 ± 0.01 nmol/min/mg Protein
S50 [3, 9]: 42.80 ± 0.73 µM
n (Hill coefficient) [3, 9]: 2.12 ± 0.24
CLmax ([3]; HLMs, calculated by Equation (2)): 3.70 ± 0.01 μL/min/mg Protein
oral bioavailability [4]: ~30%
catalytic activity towards PPD glucuronidation (human recombinant UGT1A4 [5]; PPD 10 μM): 0.06 ± 0.01 nmol/min/mg protein
catalytic activity towards PPD glucuronidation (human recombinant UGT1A4 [5]; PPD 50 μM): 0.18 ± 0.01 nmol/min/mg protein
catalytic activity towards PPD glucuronidation (human recombinant UGT1A4 [5]; PPD 200 μM): 0.35 ± 0.05 nmol/min/mg protein
Vmax (human recombinant UGT1A4 [6]; recombinant UGT1A4 0.25 mg/mL, Hill kinetics, 10–500 μM PPD, mean ± SD): 0.31 ± 0.01 nmol/min/mg Protein
n (Hill coefficient) (human recombinant UGT1A4 [6]; recombinant UGT1A4, Hill kinetics, 10–500 μM PPD): 2.34 ± 0.23
CLmax (human recombinant UGT1A4 [6]; recombinant UGT1A4, calculated by Equation (2)): 8.39 ± 0.79 μL/min/mg Protein
Vmax ([7]; RLMs 0.5 mg protein/mL, Hill kinetics, 10–500 μM PPD, mean ± SD): 0.30 ± 0.01 nmol/min/mg Protein
S50 [7, 10]: 20.68 ± 1.39 µM
n (Hill coefficient) [7, 10]: 2.50 ± 0.48
CLmax ([7]; RLMs, calculated by Equation (2)): 7.36 ± 0.27 μL/min/mg Protein

B1: human recombinant UGT 1A4 (Homo sapiens) (protein)
chain: T2 sequence (P22310 29-534)
notes: purchased BD Gentest
K0.5 [8]: 18.49 ± 1.85 µM
Vmax [8]: 0.00031 µmol/min/mg
